From patent US20080051429A1, “USE OF 4-AMINO-PIPERIDINES FOR TREATING SLEEP DISORDERS” (priority 2006, published 2008) come the findings set out here.

A value given as a limit tells only on which side of the number the result lay.

Test in all cases: R-SAT broad profiling
What all share (assay type): cell-based

Experiment [1] has as its target T1, m4 (Homo sapiens, UniProt P08173).
T1 construct: expressed in transfected cells; host or cells: NIH3T3
T1 sequence (P08173 1-479): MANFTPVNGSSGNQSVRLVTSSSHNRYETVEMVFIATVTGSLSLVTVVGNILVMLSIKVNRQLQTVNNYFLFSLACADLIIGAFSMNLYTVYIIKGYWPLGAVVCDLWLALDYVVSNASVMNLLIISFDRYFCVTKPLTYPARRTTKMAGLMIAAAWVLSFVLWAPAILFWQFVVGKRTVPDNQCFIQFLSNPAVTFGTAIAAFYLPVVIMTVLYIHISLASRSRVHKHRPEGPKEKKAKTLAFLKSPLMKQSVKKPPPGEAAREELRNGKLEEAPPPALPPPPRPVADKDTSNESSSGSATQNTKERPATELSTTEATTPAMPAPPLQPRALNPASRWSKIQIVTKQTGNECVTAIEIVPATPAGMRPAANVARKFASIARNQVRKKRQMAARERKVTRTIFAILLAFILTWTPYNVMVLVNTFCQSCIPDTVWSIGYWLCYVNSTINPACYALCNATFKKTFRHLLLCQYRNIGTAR
The settings on record: agonist; read-out: pEC50 or pIC50 (converted). On the procedure: (§1) The functional receptor assay, Receptor Selection and Amplification Technology (R-SAT), was used (with minor modifications from that previously described U.S. Pat. No. 5,707,798) to screen compounds for efficacy at the 5-HT2A receptor. Briefly, NIH3T3 cells were grown in 96 well tissue culture plates to 70-80% confluence. Cells were transfected for 12-16 hours with plasmid DNAs using superfect (Qiagen Inc.) as per manufacture's protocols. R-SAT's were generally performed with 50 ng/well of receptor and 20 ng/well of Beta-galactosidase plasmid DNA. All receptor and G-protein constructs used were in the pSI mammalian expression vector (Promega Inc) as described in U.S. Pat. No. 5,707,798. The 5HT2A receptor gene was amplified by nested PCR from brain cDNA using the oligodeoxynucleotides based on the published sequence (see Saltzman et. al. Biochem. Biophys. Res. Comm. 181:1469-78 (1991)). Large-scale transfections, cells were transfected for 12-16 hours, then trypsinized and frozen in DMSO. Frozen cells were later thawed, plated at 10,000-40,000 cells per well of a 96 well plate that contained drug. With both methods, cells were then grown in a humidified atmosphere with 5% ambient CO2 for five days. Media was then removed from the plates and marker gene activity was measured by the addition of the beta-galactosidase substrate ONPG (in PBS with 5% NP-40). The resulting colorimetric reaction was measured in a spectrophotometric plate reader (Titertek Inc.)at […]. All data were analyzed using the computer program XLFit (IDBSm). Efficacy is the percent maximal repression compared to repression by a control compound (ritanserin in the case of 5HT2A). pIC50 is the negative of the log(IC50), where IC50 is the calculated concentration in Molar that produces 50% maximal repression.
(§2) The R-SAT assay (described above in example 289) was used to investigate the selectivity of 4-(4-Fluoro-benzyl)-3-(4-isobutoxy-benzyl)-8-methyl-1-oxa-3,8-diaza-spiro[4.5]decan-2-one.

Experiment [2] concerns the target T2, 5HT6A (Homo sapiens, UniProt P50406).
T2 construct: expressed in transfected cells; host or cells: NIH3T3
Conditions: inverse; read-out: pEC50 or pIC50 (converted). As for the experimental part:
as §1, §2

The target in experiment [3] is T3, 5HT1F (Homo sapiens, UniProt P30939).
T3 sequence (P30939 1-366): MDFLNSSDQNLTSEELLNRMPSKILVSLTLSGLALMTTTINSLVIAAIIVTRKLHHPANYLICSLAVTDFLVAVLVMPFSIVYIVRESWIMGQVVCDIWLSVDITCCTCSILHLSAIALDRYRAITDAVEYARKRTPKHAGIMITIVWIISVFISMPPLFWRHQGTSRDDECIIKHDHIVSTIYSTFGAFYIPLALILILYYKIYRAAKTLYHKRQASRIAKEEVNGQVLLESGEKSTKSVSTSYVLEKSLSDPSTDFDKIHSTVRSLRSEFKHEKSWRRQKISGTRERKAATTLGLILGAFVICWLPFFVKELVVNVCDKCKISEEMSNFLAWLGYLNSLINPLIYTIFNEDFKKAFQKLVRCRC
More on the design: expressed in transfected cells. Conditions: read-out: pEC50/pIC50 (converted). As for the experimental part:
as §1
(§3) The R-SAT assay (described above in example 136) was used to investigate the selectivity of 2-(4-Methoxyphenyl)-N-(4-methylbenzyl)-N-(1-methylpiperidin-4-yl)acetamide hydrochloride.

The target of experiment [4] is T4, 5HT2C (Homo sapiens, UniProt P28335).
T4 sequence (P28335 33-458): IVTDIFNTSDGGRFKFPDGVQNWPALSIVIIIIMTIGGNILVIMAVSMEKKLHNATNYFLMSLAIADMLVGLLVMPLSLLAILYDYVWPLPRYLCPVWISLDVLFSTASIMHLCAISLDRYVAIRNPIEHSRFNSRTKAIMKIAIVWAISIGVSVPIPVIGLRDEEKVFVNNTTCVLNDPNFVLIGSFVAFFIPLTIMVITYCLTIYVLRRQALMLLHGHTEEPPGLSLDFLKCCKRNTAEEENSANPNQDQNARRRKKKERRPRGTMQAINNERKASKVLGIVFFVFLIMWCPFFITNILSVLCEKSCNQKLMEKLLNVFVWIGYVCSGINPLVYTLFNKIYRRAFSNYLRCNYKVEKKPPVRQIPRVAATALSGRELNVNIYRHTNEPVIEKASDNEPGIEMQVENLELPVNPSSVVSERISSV
Further details: expressed in transfected cells. The settings on record: read-out: pEC50/pIC50 (converted). As for the experimental part: as §1, §3

Experiment [5] addresses 5HT1B (Homo sapiens, UniProt P28222). Further details: expressed in transfected cells. Conditions: read-out: pEC50/pIC50 (converted). On the procedure:
as §1, §3

The target of experiment [6] is 5HT2B (Homo sapiens, UniProt P41595). More on the design: expressed in transfected cells. The settings on record: read-out: pEC50/pIC50 (converted). As for the experimental part: as §1, §3
5HT2B, sequence (P41595 whole entry, species assumed): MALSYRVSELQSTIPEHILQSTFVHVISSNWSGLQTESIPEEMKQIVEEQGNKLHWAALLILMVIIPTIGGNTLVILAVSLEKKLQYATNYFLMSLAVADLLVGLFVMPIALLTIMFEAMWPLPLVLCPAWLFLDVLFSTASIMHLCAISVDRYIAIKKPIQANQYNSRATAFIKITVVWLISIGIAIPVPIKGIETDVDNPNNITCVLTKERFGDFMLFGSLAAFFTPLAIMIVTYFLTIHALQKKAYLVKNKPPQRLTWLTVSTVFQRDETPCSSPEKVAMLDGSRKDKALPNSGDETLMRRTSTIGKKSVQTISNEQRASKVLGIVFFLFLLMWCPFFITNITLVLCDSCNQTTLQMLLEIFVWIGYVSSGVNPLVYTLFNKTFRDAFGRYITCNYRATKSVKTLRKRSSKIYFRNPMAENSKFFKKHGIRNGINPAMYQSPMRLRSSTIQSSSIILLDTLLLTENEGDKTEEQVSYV
The target of experiment [7] is 5HT1D (Homo sapiens, UniProt P28221). Further details: expressed in transfected cells. The settings on record: read-out: pEC50/pIC50 (converted). On the procedure:
as §1, §3

5HT1D, sequence (P28221 whole entry, species assumed): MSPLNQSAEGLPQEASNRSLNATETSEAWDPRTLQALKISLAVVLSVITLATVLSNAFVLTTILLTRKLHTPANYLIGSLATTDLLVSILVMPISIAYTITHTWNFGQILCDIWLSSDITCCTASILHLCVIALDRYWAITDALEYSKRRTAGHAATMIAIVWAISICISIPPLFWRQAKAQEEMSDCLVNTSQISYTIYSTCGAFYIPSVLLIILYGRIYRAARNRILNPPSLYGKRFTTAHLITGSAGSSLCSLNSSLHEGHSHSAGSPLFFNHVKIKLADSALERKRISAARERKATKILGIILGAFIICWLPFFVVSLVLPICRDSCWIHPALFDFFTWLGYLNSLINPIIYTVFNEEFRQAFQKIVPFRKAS
5HT1B, sequence (P28222 whole entry, species assumed): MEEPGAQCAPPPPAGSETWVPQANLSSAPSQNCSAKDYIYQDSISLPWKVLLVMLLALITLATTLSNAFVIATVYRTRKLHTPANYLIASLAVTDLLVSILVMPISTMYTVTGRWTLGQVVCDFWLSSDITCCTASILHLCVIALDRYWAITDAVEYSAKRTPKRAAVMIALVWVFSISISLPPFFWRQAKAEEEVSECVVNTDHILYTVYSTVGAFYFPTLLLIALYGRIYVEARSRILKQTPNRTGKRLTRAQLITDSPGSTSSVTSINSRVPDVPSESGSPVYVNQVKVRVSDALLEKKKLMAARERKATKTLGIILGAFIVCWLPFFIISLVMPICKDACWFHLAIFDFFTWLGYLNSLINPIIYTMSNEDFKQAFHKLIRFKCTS
T2 sequence (P50406 whole entry): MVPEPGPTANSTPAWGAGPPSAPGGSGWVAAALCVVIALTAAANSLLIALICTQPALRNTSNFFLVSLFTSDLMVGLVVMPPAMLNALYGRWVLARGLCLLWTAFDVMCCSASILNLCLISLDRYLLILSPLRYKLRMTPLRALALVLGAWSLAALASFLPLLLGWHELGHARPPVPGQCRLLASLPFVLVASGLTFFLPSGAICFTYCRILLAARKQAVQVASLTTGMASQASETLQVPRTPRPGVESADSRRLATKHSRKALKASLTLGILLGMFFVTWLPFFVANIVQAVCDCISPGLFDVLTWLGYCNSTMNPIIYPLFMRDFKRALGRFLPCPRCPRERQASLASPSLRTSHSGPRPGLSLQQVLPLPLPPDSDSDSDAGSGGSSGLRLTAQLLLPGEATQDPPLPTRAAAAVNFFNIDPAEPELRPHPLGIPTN

`CC(C)COc1ccc(CN2C(=O)OC3(CCN(C)CC3)C2Cc2ccc(F)cc2)cc1.Cl` (racemic) [Example 69NLS75, 4-(4-Fluorobenzyl)-3-(4-isobutoxybenzyl)-8-methyl-1-oxa-3,8-diazaspiro[4.5]decan-2-one, hydrochloride]: the EC50 in experiment [1] is > 3.16 µM. Further, in experiment [2], the IC50 is > 3.16 µM.
For `COc1ccc(CC(=O)N(Cc2ccc(C)cc2)C2CCN(C)CC2)cc1` [Example 50ELH27, 2-(4-Methoxyphenyl)-N-(4-methylbenzyl)-N-(1-methylpiperidin-4-yl)acetamide], the EC50 in experiment [3] (agonist), in experiment [4] (agonist), in experiment [5] (agonist), in experiment [6] (agonist) and in experiment [7] (agonist) was > 3.16 µM throughout. In addition, the IC50 in experiment [3] (antagonist) was > 3.16 µM; in experiment [4] (inverse agonist) it was 100 nM; in experiment [5] (antagonist), > 3.16 µM; in experiment [6] (inverse agonist) it was 126 nM; in experiment [7] (antagonist), > 3.16 µM.
